Reference: PubChem BioAssay (NCI)
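Method: 48-hour compound exposure of cells in 96-well plates, five concentrations, linear interpolation of endpoints. TGI: concentration producing complete growth inhibition.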

Experiments:
Test in all cases: DTP human tumour cell line panel, 48 h
KM12 colon = system: KM12 colon
HOP-92 NSCLC = system: HOP-92 NSCLC
U251 CNS = system: U251 CNS
SK-MEL-28 melanoma = system: SK-MEL-28 melanoma
CAKI-1 renal = system: CAKI-1 renal
OVCAR-4 ovarian = system: OVCAR-4 ovarian
T-47D breast = system: T-47D breast
NCI-H460 lung = system: NCI-H460 lung
MCF7 breast = system: MCF7 breast
NCI-H522 lung = system: NCI-H522 lung
NCI-H23 lung = system: NCI-H23 lung
ACHN renal = system: ACHN renal
NCI-H226 lung = system: NCI-H226 lung
SW-620 colon = system: SW-620 colon
UO-31 renal = system: UO-31 renal
HCT-15 colon = system: HCT-15 colon
SK-MEL-2 melanoma = system: SK-MEL-2 melanoma
CCRF-CEM leukemia = system: CCRF-CEM leukemia
OVCAR-5 ovarian = system: OVCAR-5 ovarian
SNB-75 CNS = system: SNB-75 CNS
MDA-MB-435 = system: MDA-MB-435
SK-OV-3 ovarian = system: SK-OV-3 ovarian
MOLT-4 leukemia = system: MOLT-4 leukemia
UACC-62 melanoma = system: UACC-62 melanoma
SNB-19 CNS = system: SNB-19 CNS
A549 NSCLC = system: A549 NSCLC
SF-539 CNS = system: SF-539 CNS
HL-60(TB) leukemia = system: HL-60(TB) leukemia
TK-10 renal = system: TK-10 renal
EKVX NSCLC = system: EKVX NSCLC
NCI/ADR-RES ovarian = system: NCI/ADR-RES ovarian
SF-268 CNS = system: SF-268 CNS
MDA-N = system: MDA-N
786-0 renal = system: 786-0 renal
UACC-257 melanoma = system: UACC-257 melanoma
OVCAR-8 ovarian = system: OVCAR-8 ovarian
DU-145 prostate = system: DU-145 prostate
IGROV1 ovarian = system: IGROV1 ovarian
HS 578T breast = system: HS 578T breast
SN12C renal = system: SN12C renal
K-562 leukemia = system: K-562 leukemia
COLO 205 colon = system: COLO 205 colon
SF-295 CNS = system: SF-295 CNS
OVCAR-3 ovarian = system: OVCAR-3 ovarian
MDA-MB-231 breast = system: MDA-MB-231 breast
HCC-2998 colon = system: HCC-2998 colon
A498 renal = system: A498 renal
MALME-3M melanoma = system: MALME-3M melanoma
BT-549 breast = system: BT-549 breast
RXF 393 renal = system: RXF 393 renal
SR leukemia = system: SR leukemia
RPMI-8226 leukemia = system: RPMI-8226 leukemia
PC-3 prostate = system: PC-3 prostate
HCT-116 colon = system: HCT-116 colon
HOP-62 NSCLC = system: HOP-62 NSCLC
LOX IMVI melanoma = system: LOX IMVI melanoma
SK-MEL-5 melanoma = system: SK-MEL-5 melanoma
HT29 colon = system: HT29 colon
M19-MEL melanoma = system: M19-MEL melanoma
SNB-78 CNS = system: SNB-78 CNS
M14 melanoma = system: M14 melanoma
LXFL 529 NSCLC = system: LXFL 529 NSCLC
XF 498 CNS = system: XF 498 CNS
DMS 114 small cell lung = system: DMS 114 small cell lung
DLD-1 colon = system: DLD-1 colon
KM20L2 colon = system: KM20L2 colon

## O=Cc1[nH]c(=O)[nH]c(=O)c1CCl
KM12 colon
  TGI: > 100 µM
HOP-92 NSCLC
  TGI: > 100 µM
U251 CNS
  TGI: > 100 µM
SK-MEL-28 melanoma
  TGI: > 100 µM
CAKI-1 renal
  TGI: > 100 µM
OVCAR-4 ovarian
  TGI: > 100 µM
T-47D breast
  TGI: > 100 µM
NCI-H460 lung
  TGI: 99.5 µM
MCF7 breast
  TGI: > 100 µM
NCI-H522 lung
  TGI: > 100 µM
NCI-H23 lung
  TGI: > 100 µM
ACHN renal
  TGI: > 100 µM
NCI-H226 lung
  TGI: > 100 µM
SW-620 colon
  TGI: > 100 µM
UO-31 renal
  TGI: > 100 µM
HCT-15 colon
  TGI: > 100 µM
SK-MEL-2 melanoma
  TGI: > 100 µM
CCRF-CEM leukemia
  TGI: > 85.8 µM
OVCAR-5 ovarian
  TGI: > 100 µM
SNB-75 CNS
  TGI: 75.6 µM
MDA-MB-435
  TGI: > 100 µM
SK-OV-3 ovarian
  TGI: > 100 µM
MOLT-4 leukemia
  TGI: > 100 µM
UACC-62 melanoma
  TGI: > 100 µM
SNB-19 CNS
  TGI: > 100 µM
A549 NSCLC
  TGI: > 100 µM
SF-539 CNS
  TGI: > 100 µM
HL-60(TB) leukemia
  TGI: > 72.9 µM
TK-10 renal
  TGI: > 100 µM
EKVX NSCLC
  TGI: > 100 µM
NCI/ADR-RES ovarian
  TGI: > 100 µM
SF-268 CNS
  TGI: > 100 µM
MDA-N
  TGI: > 100 µM
786-0 renal
  TGI: > 100 µM
UACC-257 melanoma
  TGI: > 100 µM
OVCAR-8 ovarian
  TGI: > 100 µM
DU-145 prostate
  TGI: > 100 µM
IGROV1 ovarian
  TGI: > 100 µM
HS 578T breast
  TGI: > 100 µM
SN12C renal
  TGI: > 100 µM
K-562 leukemia
  TGI: > 100 µM
COLO 205 colon
  TGI: > 100 µM
SF-295 CNS
  TGI: > 100 µM
OVCAR-3 ovarian
  TGI: > 100 µM
MDA-MB-231 breast
  TGI: > 100 µM
HCC-2998 colon
  TGI: > 100 µM
A498 renal
  TGI: > 100 µM
MALME-3M melanoma
  TGI: > 100 µM
BT-549 breast
  TGI: > 100 µM
RXF 393 renal
  TGI: > 100 µM
SR leukemia
  TGI: 57.7 µM
RPMI-8226 leukemia
  TGI: > 72.1 µM
PC-3 prostate
  TGI: > 100 µM
HCT-116 colon
  TGI: > 100 µM
HOP-62 NSCLC
  TGI: > 100 µM
LOX IMVI melanoma
  TGI: > 81.7 µM
SK-MEL-5 melanoma
  TGI: > 100 µM
HT29 colon
  TGI: > 100 µM

## CC(=O)OC1(C#N)CC2OC1C1C2N1C(=O)OC(C)(C)C (stereo not drawn)
HOP-92 NSCLC
  TGI: > 100 µM
U251 CNS
  TGI: > 100 µM
SK-MEL-28 melanoma
  TGI: > 100 µM
CAKI-1 renal
  TGI: > 100 µM
OVCAR-4 ovarian
  TGI: > 100 µM
NCI-H460 lung
  TGI: > 100 µM
NCI-H522 lung
  TGI: > 100 µM
NCI-H23 lung
  TGI: > 100 µM
ACHN renal
  TGI: > 100 µM
NCI-H226 lung
  TGI: > 100 µM
SW-620 colon
  TGI: > 100 µM
UO-31 renal
  TGI: > 100 µM
M19-MEL melanoma
  TGI: > 100 µM
SNB-78 CNS
  TGI: > 100 µM
HCT-15 colon
  TGI: > 100 µM
SK-MEL-2 melanoma
  TGI: > 100 µM
CCRF-CEM leukemia
  TGI: > 100 µM
OVCAR-5 ovarian
  TGI: > 100 µM
SNB-75 CNS
  TGI: > 100 µM
SK-OV-3 ovarian
  TGI: > 100 µM
MOLT-4 leukemia
  TGI: > 100 µM
UACC-62 melanoma
  TGI: > 100 µM
SNB-19 CNS
  TGI: > 100 µM
A549 NSCLC
  TGI: > 100 µM
SF-539 CNS
  TGI: > 100 µM
HL-60(TB) leukemia
  TGI: > 100 µM
TK-10 renal
  TGI: > 100 µM
EKVX NSCLC
  TGI: > 100 µM
SF-268 CNS
  TGI: > 100 µM
786-0 renal
  TGI: > 100 µM
OVCAR-8 ovarian
  TGI: > 100 µM
IGROV1 ovarian
  TGI: > 100 µM
SN12C renal
  TGI: > 100 µM
K-562 leukemia
  TGI: > 100 µM
COLO 205 colon
  TGI: > 100 µM
M14 melanoma
  TGI: > 100 µM
LXFL 529 NSCLC
  TGI: > 100 µM
XF 498 CNS
  TGI: > 100 µM
HCC-2998 colon
  TGI: > 100 µM
A498 renal
  TGI: > 100 µM
MALME-3M melanoma
  TGI: > 100 µM
RXF 393 renal
  TGI: > 100 µM
RPMI-8226 leukemia
  TGI: > 100 µM
DMS 114 small cell lung
  TGI: > 100 µM
HCT-116 colon
  TGI: > 100 µM
HOP-62 NSCLC
  TGI: > 100 µM
DLD-1 colon
  TGI: > 100 µM
KM20L2 colon
  TGI: > 100 µM
LOX IMVI melanoma
  TGI: > 100 µM
SK-MEL-5 melanoma
  TGI: > 100 µM
